Measurements from ChEMBL document CHEMBL2062364, “Discovery and optimization of new benzimidazole- and benzoxazole-pyrimidone selective PI3Kβ inhibitors for the treatment of phosphatase and TENsin homologue (PTEN)-deficient cancers” (J Med Chem, 2012).
In brackets after ≈: the same amount, converted by molar mass.

What was measured:
[1] = target: Serine/threonine-protein kinase mTOR (Homo sapiens, UniProt P42345); test: Inhibition of mTOR
[2] = target: Phosphatidylinositol 4,5-bisphosphate 3-kinase catalytic subunit gamma isoform (Homo sapiens, UniProt P48736); test: Inhibition of N-terminus poly-His tagged human PI3Kgamma expressed in baculovirus infected insect sf9 cells using PI(4,5)P2 as substrate preincubated with compound for 15 mins measured after 10 mins by HTRF assay
Chain of Phosphatidylinositol 4,5-bisphosphate 3-kinase catalytic subunit gamma isoform (P48736 whole entry, canonical isoform): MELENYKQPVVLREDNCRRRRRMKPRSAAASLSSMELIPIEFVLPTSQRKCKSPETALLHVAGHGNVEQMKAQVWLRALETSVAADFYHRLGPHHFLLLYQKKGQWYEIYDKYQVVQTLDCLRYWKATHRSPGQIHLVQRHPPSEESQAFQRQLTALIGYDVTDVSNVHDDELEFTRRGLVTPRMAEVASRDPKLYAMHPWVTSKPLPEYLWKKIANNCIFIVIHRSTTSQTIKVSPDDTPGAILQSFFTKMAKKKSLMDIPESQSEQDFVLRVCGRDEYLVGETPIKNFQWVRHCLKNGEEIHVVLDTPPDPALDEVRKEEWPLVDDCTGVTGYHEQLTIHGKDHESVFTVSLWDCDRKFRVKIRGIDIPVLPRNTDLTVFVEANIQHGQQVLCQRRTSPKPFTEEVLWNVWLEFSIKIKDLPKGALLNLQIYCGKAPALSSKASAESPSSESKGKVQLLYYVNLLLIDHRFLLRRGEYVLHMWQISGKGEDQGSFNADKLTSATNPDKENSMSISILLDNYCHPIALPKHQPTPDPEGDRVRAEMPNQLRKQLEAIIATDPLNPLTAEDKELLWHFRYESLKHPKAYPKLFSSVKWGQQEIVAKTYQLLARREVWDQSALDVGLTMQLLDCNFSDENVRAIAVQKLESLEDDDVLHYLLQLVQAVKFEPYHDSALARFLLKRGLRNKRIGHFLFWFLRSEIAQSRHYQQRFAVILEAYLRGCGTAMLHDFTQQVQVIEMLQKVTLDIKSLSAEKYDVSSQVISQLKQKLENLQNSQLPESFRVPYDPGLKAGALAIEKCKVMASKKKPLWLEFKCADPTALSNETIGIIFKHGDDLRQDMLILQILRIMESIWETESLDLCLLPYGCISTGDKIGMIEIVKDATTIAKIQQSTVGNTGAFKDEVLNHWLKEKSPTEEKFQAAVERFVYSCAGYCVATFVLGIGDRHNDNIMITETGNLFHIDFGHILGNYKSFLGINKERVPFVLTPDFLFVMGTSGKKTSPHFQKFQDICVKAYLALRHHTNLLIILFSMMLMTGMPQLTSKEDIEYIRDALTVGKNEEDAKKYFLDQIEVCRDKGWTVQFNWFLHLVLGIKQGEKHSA

[3] = target: T1, Phosphatidylinositol 4,5-bisphosphate 3-kinase catalytic subunit delta isoform (Homo sapiens, UniProt O00329); test: Inhibition of poly-His tagged human PI3Kdelta expressed in baculovirus infected insect sf9 cells coexpressing p85alpha using PI(4,5)P2 as substrate preincubated with compound for 15 mins measured after 10 mins by HTRF assay
T1 sequence (O00329 whole entry): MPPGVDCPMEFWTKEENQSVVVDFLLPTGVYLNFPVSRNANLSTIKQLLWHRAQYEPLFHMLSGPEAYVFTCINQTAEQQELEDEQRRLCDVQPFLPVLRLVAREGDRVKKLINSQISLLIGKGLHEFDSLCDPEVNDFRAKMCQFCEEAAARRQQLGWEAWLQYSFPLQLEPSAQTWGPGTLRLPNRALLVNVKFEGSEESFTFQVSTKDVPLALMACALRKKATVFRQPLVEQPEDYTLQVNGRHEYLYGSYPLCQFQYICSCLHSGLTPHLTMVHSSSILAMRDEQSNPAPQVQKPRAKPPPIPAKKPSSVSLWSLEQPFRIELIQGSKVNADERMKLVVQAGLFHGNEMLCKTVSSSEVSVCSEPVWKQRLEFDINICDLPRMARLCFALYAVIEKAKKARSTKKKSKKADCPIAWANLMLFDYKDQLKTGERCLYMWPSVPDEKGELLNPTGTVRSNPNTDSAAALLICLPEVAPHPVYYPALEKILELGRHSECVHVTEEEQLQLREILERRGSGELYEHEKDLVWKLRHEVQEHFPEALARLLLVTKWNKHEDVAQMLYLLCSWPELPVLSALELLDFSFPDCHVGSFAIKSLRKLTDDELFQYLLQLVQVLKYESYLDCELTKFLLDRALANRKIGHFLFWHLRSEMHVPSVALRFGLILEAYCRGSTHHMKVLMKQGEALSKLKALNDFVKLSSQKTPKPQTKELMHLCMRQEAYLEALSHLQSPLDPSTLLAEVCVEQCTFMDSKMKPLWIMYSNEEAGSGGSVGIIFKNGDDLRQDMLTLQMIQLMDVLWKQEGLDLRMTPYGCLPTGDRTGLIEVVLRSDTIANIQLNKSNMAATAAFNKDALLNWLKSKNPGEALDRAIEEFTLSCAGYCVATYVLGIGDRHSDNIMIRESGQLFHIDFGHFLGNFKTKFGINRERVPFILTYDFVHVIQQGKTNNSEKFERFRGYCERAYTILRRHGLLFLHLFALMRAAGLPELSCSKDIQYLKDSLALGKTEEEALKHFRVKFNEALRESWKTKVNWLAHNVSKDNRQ

[4] = target: T2, Phosphatidylinositol 4,5-bisphosphate 3-kinase catalytic subunit beta isoform (Homo sapiens, UniProt P42338); test: Inhibition of N-terminus poly-His tagged human PI3Kbeta expressed in baculovirus infected insect […] cells coexpressing p85alpha using PI(4,5)P2 as substrate preincubated with compound for 15 mins measured after 10 mins by HTRF assay
T2 sequence (P42338 whole entry, canonical isoform): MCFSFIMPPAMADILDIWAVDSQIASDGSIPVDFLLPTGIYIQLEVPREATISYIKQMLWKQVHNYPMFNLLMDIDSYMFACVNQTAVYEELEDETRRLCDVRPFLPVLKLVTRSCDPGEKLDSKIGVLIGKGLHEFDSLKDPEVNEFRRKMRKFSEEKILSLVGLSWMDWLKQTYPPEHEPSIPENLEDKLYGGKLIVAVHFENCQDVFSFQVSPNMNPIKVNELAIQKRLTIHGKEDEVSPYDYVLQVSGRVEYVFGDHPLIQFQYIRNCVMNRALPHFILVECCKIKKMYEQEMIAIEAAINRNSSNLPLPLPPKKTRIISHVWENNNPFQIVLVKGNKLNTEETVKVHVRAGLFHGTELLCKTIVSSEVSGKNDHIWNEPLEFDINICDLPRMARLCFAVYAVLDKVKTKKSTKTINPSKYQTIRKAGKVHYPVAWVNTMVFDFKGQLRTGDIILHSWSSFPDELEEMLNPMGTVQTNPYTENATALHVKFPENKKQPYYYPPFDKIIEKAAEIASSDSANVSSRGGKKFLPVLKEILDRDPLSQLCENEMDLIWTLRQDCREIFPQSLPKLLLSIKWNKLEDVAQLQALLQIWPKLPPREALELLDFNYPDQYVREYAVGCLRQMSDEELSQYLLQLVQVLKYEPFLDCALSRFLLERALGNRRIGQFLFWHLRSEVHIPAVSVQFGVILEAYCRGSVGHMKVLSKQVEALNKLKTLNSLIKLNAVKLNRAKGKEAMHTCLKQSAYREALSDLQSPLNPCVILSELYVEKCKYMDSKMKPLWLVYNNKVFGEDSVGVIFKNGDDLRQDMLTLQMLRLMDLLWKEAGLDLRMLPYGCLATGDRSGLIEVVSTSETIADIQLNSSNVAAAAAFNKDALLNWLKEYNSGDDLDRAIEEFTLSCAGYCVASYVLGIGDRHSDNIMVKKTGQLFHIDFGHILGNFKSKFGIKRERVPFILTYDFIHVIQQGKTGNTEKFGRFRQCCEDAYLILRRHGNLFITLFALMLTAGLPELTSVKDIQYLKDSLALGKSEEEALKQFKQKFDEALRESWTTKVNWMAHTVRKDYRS

[5] = target: T2, Phosphatidylinositol 4,5-bisphosphate 3-kinase catalytic subunit beta isoform; test: Inhibition of human PI3Kbeta-mediated Akt phosphorylation at Ser473 residue expressed in PTEN-deficient human PC3 cells by chemiluminescence assay; assay type: cell-based, PC-3
[6] = target: Phosphatidylinositol 4,5-bisphosphate 3-kinase catalytic subunit alpha isoform (Homo sapiens, UniProt P42336); test: Inhibition of N-terminus poly-His tagged human PI3Kalpha expressed in baculovirus infected insect sf9 cells coexpressing p85alpha using PI(4,5)P2 as substrate preincubated with compound for 15 mins measured after 10 mins by HTRF assay
Chain of Phosphatidylinositol 4,5-bisphosphate 3-kinase catalytic subunit alpha isoform (P42336 whole entry, canonical isoform): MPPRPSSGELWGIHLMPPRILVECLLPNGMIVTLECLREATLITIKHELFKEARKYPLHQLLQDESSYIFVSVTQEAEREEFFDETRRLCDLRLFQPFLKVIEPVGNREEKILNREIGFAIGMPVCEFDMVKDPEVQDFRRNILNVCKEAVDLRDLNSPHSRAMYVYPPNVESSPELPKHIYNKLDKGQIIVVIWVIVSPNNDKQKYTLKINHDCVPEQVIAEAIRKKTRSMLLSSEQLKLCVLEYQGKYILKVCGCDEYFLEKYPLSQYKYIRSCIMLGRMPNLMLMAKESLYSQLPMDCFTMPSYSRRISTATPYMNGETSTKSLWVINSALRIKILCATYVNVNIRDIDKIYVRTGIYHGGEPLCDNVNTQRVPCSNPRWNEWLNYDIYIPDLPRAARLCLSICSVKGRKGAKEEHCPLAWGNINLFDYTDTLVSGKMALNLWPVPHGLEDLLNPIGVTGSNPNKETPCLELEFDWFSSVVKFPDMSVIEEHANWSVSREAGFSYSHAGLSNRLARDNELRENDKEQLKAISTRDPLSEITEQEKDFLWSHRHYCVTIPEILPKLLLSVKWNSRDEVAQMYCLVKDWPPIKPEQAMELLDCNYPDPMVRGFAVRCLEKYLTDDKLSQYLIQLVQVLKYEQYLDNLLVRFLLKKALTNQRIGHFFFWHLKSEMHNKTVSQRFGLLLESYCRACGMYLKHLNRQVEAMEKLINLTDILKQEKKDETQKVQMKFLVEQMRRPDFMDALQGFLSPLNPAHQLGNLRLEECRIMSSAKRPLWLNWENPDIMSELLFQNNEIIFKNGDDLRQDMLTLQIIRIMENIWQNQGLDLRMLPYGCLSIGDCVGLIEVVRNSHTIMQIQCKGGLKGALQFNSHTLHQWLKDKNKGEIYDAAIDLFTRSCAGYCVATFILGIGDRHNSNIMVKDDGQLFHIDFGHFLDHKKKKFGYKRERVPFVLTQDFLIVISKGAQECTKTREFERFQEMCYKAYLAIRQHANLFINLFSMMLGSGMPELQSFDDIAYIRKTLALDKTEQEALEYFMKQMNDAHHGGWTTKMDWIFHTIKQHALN

[7] = Thermodynamic solubility of the compound in phosphate buffer at pH 7.4 after 16 hrs by HPLC analysis; assay type: physicochemical; settings: read-out: Therm_solubility
[8] = Apparent permeability of the compound across human Caco2 cells; assay type: ADME, cell-based; settings: Caco-2
Cytochrome P450 3A4 = Cytochrome P450 3A4 (Homo sapiens, UniProt P08684); test: Inhibition of human recombinant CPY3A4
Chain of Cytochrome P450 3A4 (P08684 whole entry): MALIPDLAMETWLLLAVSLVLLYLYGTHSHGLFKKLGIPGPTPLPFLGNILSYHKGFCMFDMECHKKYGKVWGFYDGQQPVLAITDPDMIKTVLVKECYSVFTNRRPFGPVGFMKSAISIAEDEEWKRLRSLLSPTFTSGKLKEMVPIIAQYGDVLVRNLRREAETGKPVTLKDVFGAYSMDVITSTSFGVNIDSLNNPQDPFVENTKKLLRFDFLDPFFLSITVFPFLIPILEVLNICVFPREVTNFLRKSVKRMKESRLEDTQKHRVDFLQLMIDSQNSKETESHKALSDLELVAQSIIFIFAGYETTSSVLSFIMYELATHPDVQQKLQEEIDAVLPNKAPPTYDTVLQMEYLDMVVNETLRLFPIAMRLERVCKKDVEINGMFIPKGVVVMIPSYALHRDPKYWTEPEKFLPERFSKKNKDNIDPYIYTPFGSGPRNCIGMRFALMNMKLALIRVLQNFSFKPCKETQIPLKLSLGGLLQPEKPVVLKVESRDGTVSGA

[9] = Drug metabolism in human liver microsomes; assay type: ADME, Microsome; settings: read-out: Drug metabolism
[10] = Drug metabolism in mouse liver microsomes; assay type: ADME, Microsome; settings: read-out: Drug metabolism

| Compound | IC50 [1] | IC50 [2] | IC50 [3] | IC50 [4] | IC50 [5] | IC50 [6] | solubility thermodynamic at 16 h [7] | Papp [8] | IC50 (Cytochrome P450 3A4) | metabolised [9] | metabolised [10] |
| --- | --- | --- | --- | --- | --- | --- | --- | --- | --- | --- | --- |
| O=c1cc(N2CCOCC2)nc(Cc2nc3c(-c4cccnc4)cccc3o2)[nH]1 | > 10 µM | > 10 µM | 0.335 µM | 0.156 µM | 0.044 µM | > 10 µM |  |  |  |  |  |
| Cc1ccc2oc(Cc3nc(N4CCOCC4)cc(=O)[nH]3)nc2c1 | > 10 µM |  |  | 0.96 µM | 0.233 µM | > 10 µM |  |  |  |  |  |
| O=c1cc(N2CCOCC2)nc(Cc2nc3c(-c4ccccc4)cccc3[nH]2)[nH]1 | > 10 µM | > 10 µM | 0.18 µM | 0.01 µM | 0.065 µM | 5.5 µM | 3 µM (≈ 1.16 µg/mL) | 1 nm/s | > 40 µM | 78% | 51% |
| O=c1cc(N2CCOCC2)nc(Cc2nc3ccc(F)cc3o2)[nH]1 | > 10 µM | > 10 µM | 9.04 µM | 0.126 µM | 0.049 µM | > 10 µM |  |  |  |  |  |
| COc1ccc2[nH]c(Cc3nc(N4CCOCC4)cc(=O)[nH]3)nc2c1 | > 10 µM | > 10 µM | 0.397 µM | 0.193 µM | 0.475 µM | > 10 µM |  |  |  |  |  |
| Cc1cc(F)ccc1Oc1cccc2c(=O)cc(N3CCOCC3)[nH]c12 |  | > 10 µM | 0.166 µM | 0.032 µM | 0.072 µM | > 10 µM |  |  |  |  |  |
| O=c1cc(N2CCOCC2)nc(Cc2nc3ccc(Cl)cc3[nH]2)[nH]1 | > 10 µM | > 10 µM | 0.247 µM | 0.099 µM | 0.063 µM | 5.65 µM | 3 µM (≈ 1.04 µg/mL) |  | > 40 µM | 78% | 35% |
| O=C(Cc1nc(N2CCOCC2)cc(=O)[nH]1)Nc1ccccc1 | > 10 µM | > 10 µM | 0.118 µM | 0.042 µM |  | 2.13 µM |  |  |  |  |  |
| O=c1cc(N2CCOCC2)nc(Cc2nc3c(F)cccc3o2)[nH]1 | > 10 µM | > 10 µM | 8.45 µM | 0.567 µM | 0.125 µM | > 10 µM |  |  |  |  |  |
| Cn1c(Cc2nc(N3CCOCC3)cc(=O)[nH]2)nc2cc(-c3ccccc3)ccc21 | > 10 µM | > 10 µM | 6.75 µM | > 10 µM |  | > 10 µM |  |  |  |  |  |
| O=c1cc(N2CCOCC2)nc(Cc2nc3cc(Br)ccc3[nH]2)[nH]1 | > 10 µM | > 10 µM | 0.442 µM | 0.091 µM | 0.085 µM | 5.46 µM | 3 µM (≈ 1.17 µg/mL) |  | > 40 µM | 75% | 27% |
| O=c1cc(N2CCOCC2)nc(Cc2nc3ccccc3n2Cc2ccccc2)[nH]1 | > 10 µM | > 10 µM | 0.084 µM | 0.111 µM | 0.105 µM | 5.72 µM |  |  |  |  |  |
| O=c1cc(N2CCOCC2)nc(Cc2nc3c(-c4ccccc4)cccc3o2)[nH]1 | > 10 µM | > 10 µM | 0.373 µM | 0.019 µM | 0.013 µM | 7.75 µM | 3 µM (≈ 1.17 µg/mL) | 310 nm/s |  | 40% | 26% |
| Cn1c(Cc2nc3ccccc3o2)nc(N2CCOCC2)cc1=O | > 10 µM |  |  | 1.33 µM |  | > 10 µM |  |  |  |  |  |
| O=c1cc(N2CCOCC2)nc(Cc2nc3c(-c4ccncc4)cccc3o2)[nH]1 | > 10 µM | > 10 µM | 0.995 µM | 0.158 µM | 0.047 µM | > 10 µM |  |  |  |  |  |
| COCCn1c(Cc2nc(N3CCOCC3)cc(=O)[nH]2)nc2cc(F)ccc21 | > 10 µM | > 10 µM | 0.27 µM | 0.205 µM | 0.109 µM | > 10 µM |  |  |  |  |  |

| Compound | IC50 [1] | IC50 [2] | IC50 [3] | IC50 [4] | IC50 [5] | IC50 [6] | solubility thermodynamic at 16 h [7] | Papp [8] | IC50 (Cytochrome P450 3A4) | metabolised [9] | metabolised [10] |
| --- | --- | --- | --- | --- | --- | --- | --- | --- | --- | --- | --- |
| O=c1cc(N2CCOCC2)nc(Cc2nc3ccccc3[nH]2)[nH]1 | > 10 µM | > 10 µM | 2.87 µM | 0.158 µM | 0.665 µM | > 10 µM |  |  |  |  |  |
| Cn1c(Cc2nc(N3CCOCC3)cc(=O)[nH]2)nc2ccc(-c3ccccc3)cc21 | > 10 µM | > 10 µM | 3.41 µM | 3.41 µM |  | 7.8 µM |  |  |  |  |  |
| Cc1cccc2nc(Cc3nc(N4CCOCC4)cc(=O)[nH]3)oc12 | > 10 µM | > 10 µM | 2.38 µM | 0.425 µM | 0.202 µM | 7.15 µM |  |  |  |  |  |
| Cc1ccc2[nH]c(Cc3nc(N4CCOCC4)cc(=O)[nH]3)nc2c1 | > 10 µM | > 10 µM | 2.21 µM | 0.45 µM | 0.14 µM | 9.88 µM |  |  |  |  |  |
| O=c1cc(N2CCOCC2)nc(Cc2nc3c(-c4ccccn4)cccc3o2)[nH]1 | > 10 µM | > 10 µM | 2.17 µM | 0.336 µM | 0.113 µM | 3.33 µM |  |  |  |  |  |
| Cc1ccc2nc(Cc3nc(N4CCOCC4)cc(=O)[nH]3)oc2c1 | > 10 µM | > 10 µM | 1.14 µM | 0.526 µM | 0.143 µM | 9.77 µM |  |  |  |  |  |
| O=c1cc(N2CCOCC2)nc(Cc2nc3ccc(C(F)(F)F)cc3[nH]2)[nH]1 | > 10 µM | > 10 µM | 2.85 µM | 0.386 µM | 0.961 µM | > 10 µM |  |  |  |  |  |
| O=c1cc(N2CCOCC2)nc(Cc2nc3cc(F)ccc3n2C2CC2)[nH]1 | > 10 µM | > 10 µM | 0.036 µM | 0.029 µM | 0.009 µM | > 10 µM |  | 22 nm/s | > 40 µM | 99% | 99% |
| Cn1c(Cc2nc(N3CCOCC3)cc(=O)[nH]2)nc2ccc(F)cc21 | > 10 µM | > 10 µM | 1.06 µM | 0.29 µM | 0.289 µM | > 10 µM |  |  |  |  |  |
| Cn1c(Cc2nc3cc(F)ccc3[nH]2)nc(N2CCOCC2)cc1=O | > 10 µM | > 10 µM | 5.72 µM | 0.739 µM |  | > 10 µM |  |  |  |  |  |
| O=c1cc(N2CCOCC2)nc(Cc2nc3c(Br)cccc3o2)[nH]1 | > 10 µM | > 10 µM | 2.27 µM | 0.585 µM | 0.127 µM | > 10 µM |  |  |  |  |  |
| Cc1cccc2oc(Cc3nc(N4CCOCC4)cc(=O)[nH]3)nc12 | > 10 µM | 3.33 µM | 2.75 µM | 0.461 µM | 0.075 µM | > 10 µM |  |  |  |  |  |
| O=c1cc(N2CCOCC2)nc(Cc2nc3ccccc3n2C2CCCCC2)[nH]1 | > 10 µM | > 10 µM | 0.021 µM | 0.09 µM | 0.142 µM | 8.4 µM |  | 15 nm/s | > 40 µM | 97% | 96% |
| Cn1c(Cc2nc(N3CCOCC3)cc(=O)[nH]2)nc2c(-c3ccccc3)cccc21 | > 10 µM | > 10 µM | 0.274 µM | 0.057 µM | 0.026 µM | 0.314 µM |  | 114 nm/s | > 40 µM | 41% | 40% |
| O=c1cc(N2CCOCC2)nc(Cc2nc3cccc(F)c3o2)[nH]1 | > 10 µM | > 10 µM | 2.56 µM | 0.373 µM | 0.088 µM | > 10 µM |  |  |  |  |  |
